By EC50 is commonly meant the concentration at which the effect is half-maximal.

Molecules are shown by their SMILES. Read-outs that look alike come from different tables or passages of the source.

Our source for the EC50 and Emax values is patent US20260042763A1, “PE[…] POSITIVE […] THE TREATMENT OF IRRITABLE BOWEL SYNDROME AND OTHER AILMENTS OF THE PERIPHERAL NERVOUS SYSTEM” (The Johns Hopkins University, priority 2022, published 2026).

The experiment deals with T1, human isoforms of GABAA (α3ß2γ2) receptors (Homo sapiens, UniProt P18507+P34903).
T1 construct: expressed in transfected cells
Put plainly: Potentiation of GABA-evoked currents at GABAA (α3β2γ2) receptors, automated patch-clamp (QPatch), Example B1. Format: cell-based. Particulars: for Emax: Emax of potentiation, read-out: Max %. The procedure:
The ability of compounds exemplified above to potentiate the effect of GABA on GABAA receptors (α3β2γ2) was determined using one or more of the methods described below.
Ltk cells stably expressing the human isoforms of GABAA (α3ß2γ2) receptors were used together with submaximal GABA concentrations to investigate the modulatory effects of the test items. Cells were incubated at 37° C. in a humidified atmosphere with 5% CO2 (rel. humidity about 95%). The cells were continuously maintained in and passaged in sterile culture flasks containing a 1:1 mixture of Dulbecco's modified eagle medium and nutrient mixture D-MEM/F-12 (1×, liquid, with L-Glutamine), supplemented with 10% fetal bovine serum and 1.0% Penicillin/Streptomycin solution. The complete medium as indicated above was supplemented with neomycin. In general, cells were passaged at a confluence of about 80 to 90%. For electrophysiological measurements cells were harvested at a confluence of about 80 to 90% from sterile culture flasks containing culture complete medium. Cells were transferred as suspension in PBS to the QPatch 16X or QPatch HTX system to the centrifuge/washer directly. Expression of GABA receptor was induced by adding Dexamethasone to the cells for 24 to 48 h before experimentation.
Modulatory effects of the compounds of this disclosure were investigated using cells stably transfected with GABA-activated channels of the GABAA (α3ß2γ2) subtype together with submaximal GABA concentrations. Expression of GABA receptor were induced by adding Dexamethasone to the cells for 24 to 48 h before experimentation. In general, cells were passaged at a confluence of about 80 to 90%. For electrophysiological measurements cells were harvested at a confluence of about 80 to 90% from sterile culture flasks containing culture complete medium. Cells were transferred as suspension in PBS to the QPatch 16X or QPatch HTX system to the centrifuge/washer directly. Cells were incubated at 37° C. in a humidified atmosphere with 5% CO2 (rel. humidity about 95%). The cells were continuously maintained in and passaged in sterile culture flasks containing a 1:1 mixture of Dulbecco's modified eagle medium and nutrient mixture D-MEM/F-12 (1×, liquid, with L-Glutamine), supplemented with 10% foetal bovine serum and 1.0% Penicillin/Streptomycin solution and neomycin. The 1× bath solution was made at least every 5 days out of a sterile 10× bath solution, which had been prepared prior to the experimental start of the present study and stored at 1° C. to 9° C. The final bath solution included Sodium Chloride 137 mM, Potassium Chloride 4 mM, Calcium Chloride 1.8 mM, Magnesium Chloride 1 mM, HEPES 10 mM, D-Glucose 10 mM, pH (NaOH) 7.4. The 1× intracellular solution was thawed every day and includes Potassium Chloride 130 mM, Magnesium Chloride 1 mM, Mg-ATP 5 mM, HEPES 10 mM, EGTA 5 Mm, pH (KOH) 7.2. Automated patch-clamping: Cells were transferred as suspension in serum-free medium to the QPatch HTX system and kept in the cell storage tank during experiments. All solutions applied to cells including the intracellular solution were maintained at room temperature (19° C. to 30° C.). After formation of a Gigaohm seal between the patch electrodes and transfected individual Ltk cells were ruptured to assure electrical access to the cell interior (whole-cell patch-configuration). Inward currents were measured upon application of 2.0 μM GABA to patch-clamped cells for 4 s. During the entire experiment the cells were voltage-clamped at a holding potential of −80 mV. For the analysis of test items, GABAA receptors were stimulated by 2.0 μM GABA and test item combinations described below. Thirty-second prewash steps with test items was performed in between two agonist applications. […]
For orientation: The patch-clamp technique gives a direct electrical read-out from membranes.

The mark [1] stands for this setting: Ltk cells expressing GABAA α3β2γ2, 2.0 μM GABA, whole-cell, holding potential −80 mV.

T1 sequence (P34903 29-492): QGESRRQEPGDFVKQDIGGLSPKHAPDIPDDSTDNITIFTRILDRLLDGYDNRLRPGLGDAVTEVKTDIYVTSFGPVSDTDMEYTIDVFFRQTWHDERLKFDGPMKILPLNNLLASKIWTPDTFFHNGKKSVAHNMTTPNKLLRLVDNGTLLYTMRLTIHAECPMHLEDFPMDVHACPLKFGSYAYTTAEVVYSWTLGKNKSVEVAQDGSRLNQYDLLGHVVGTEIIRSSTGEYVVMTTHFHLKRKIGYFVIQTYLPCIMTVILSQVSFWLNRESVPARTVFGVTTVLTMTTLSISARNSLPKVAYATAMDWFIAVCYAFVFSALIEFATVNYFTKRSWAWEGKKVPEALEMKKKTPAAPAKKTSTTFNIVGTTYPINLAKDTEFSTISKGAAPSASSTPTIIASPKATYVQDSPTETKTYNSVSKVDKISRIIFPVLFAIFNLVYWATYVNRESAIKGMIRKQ
T1 sequence (P47870 25-512 partner limits assumed): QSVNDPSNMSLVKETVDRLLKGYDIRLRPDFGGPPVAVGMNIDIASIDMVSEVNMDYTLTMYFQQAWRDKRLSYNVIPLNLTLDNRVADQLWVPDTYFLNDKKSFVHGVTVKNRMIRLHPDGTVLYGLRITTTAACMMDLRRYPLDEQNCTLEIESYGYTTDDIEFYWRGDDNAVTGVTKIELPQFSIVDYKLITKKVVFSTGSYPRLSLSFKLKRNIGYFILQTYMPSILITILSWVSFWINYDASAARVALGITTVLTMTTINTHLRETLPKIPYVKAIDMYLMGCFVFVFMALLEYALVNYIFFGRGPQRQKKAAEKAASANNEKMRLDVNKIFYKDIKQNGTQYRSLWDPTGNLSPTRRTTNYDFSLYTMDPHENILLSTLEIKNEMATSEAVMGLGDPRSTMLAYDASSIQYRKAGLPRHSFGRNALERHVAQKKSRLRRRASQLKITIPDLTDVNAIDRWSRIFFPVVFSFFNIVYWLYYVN
T1 sequence (P18507 40-475): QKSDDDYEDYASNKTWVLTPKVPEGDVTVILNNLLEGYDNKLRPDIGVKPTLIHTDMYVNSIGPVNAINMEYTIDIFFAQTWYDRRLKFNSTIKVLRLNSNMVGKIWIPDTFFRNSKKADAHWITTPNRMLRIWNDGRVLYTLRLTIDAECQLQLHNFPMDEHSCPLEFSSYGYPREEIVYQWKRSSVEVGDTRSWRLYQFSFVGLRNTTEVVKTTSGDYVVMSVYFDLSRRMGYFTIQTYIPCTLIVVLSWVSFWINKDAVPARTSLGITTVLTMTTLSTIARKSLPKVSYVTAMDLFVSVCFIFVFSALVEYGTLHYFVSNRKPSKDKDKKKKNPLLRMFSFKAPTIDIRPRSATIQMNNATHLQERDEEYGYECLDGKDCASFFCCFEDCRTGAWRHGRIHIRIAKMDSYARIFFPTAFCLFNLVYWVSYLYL

In the case of `O=C(O)c1cn2c(n1)CN=C(c1ccccc1F)c1cc(C3CC3)ccc1-2` [Compound 222, 8-cyclopropyl-6-(2-fluorophenyl)-4H-imidazo[1,2-a][1,4]benzodiazepine-2-carboxylic acid], the EC50 lay within 50 to 100 nM. Besides, the Emax under setting [1] was above 100%.
Take `O=C(O)c1cn2c(n1)CN=C(c1ccccc1Cl)c1cc(F)ccc1-2` [Compound 223]: the EC50 is below 50 nM. In addition, under setting [1], the Emax is below 50%.
With `O=C(O)c1cn2c(n1)CN=C(c1ccccc1F)c1cccc(Cl)c1-2` [Compound 224], the EC50 is above 100 nM. Also, the Emax under setting [1] is below 50%.
`O=C(O)c1cn2c(n1)CN=C(c1ccccc1F)c1ccc(Cl)cc1-2` [Compound 225, 9-chloro-6-(2-fluorophenyl)-4H-imidazo[1,2-a][1,4]benzodiazepine-2-carboxylic acid]: the Emax under setting [1] is below 50%.
With `Cc1ccc2c(c1)C(c1ccccc1F)=NCc1nc(C(=O)O)cn1-2` [Compound 226, 6-(2-fluorophenyl)-8-methyl-4H-imidazo[1,2-a][1,4]benzodiazepine-2-carboxylic acid], the EC50 was below 50 nM. Besides, the Emax under setting [1] is above 100%.
For the compound `O=C(O)c1cn2c(n1)C(O)N=C(c1ccccc1F)c1cc(Cl)ccc1-2` (stereo not drawn) [Compound 227, 8-chloro-6-(2-fluorophenyl)-4-hydroxy-4H-benzo[f]imidazo[1,2-a][1,4]diazepine-2-carboxylic acid], the Emax under setting [1] lay within 50 to 100%.
`CN(C)CCNC(=O)c1cn2c(n1)CN=C(c1ccccc1F)c1cc(Cl)ccc1-2` [Compound 228, 8-chloro-N-[2-(dimethylamino)ethyl]-6-(2-fluorophenyl)-4H-imidazo[1,2-a][1,4]benzodiazepine-2-carboxamide]: the EC50 was below 50 nM. Moreover, the Emax under setting [1] was 50 to 100%.
Taken in the same sequence, the figures for `COCCOCCOCCOCCOCCOCCOCCOCCNC(=O)c1cn2c(n1)CN=C(c1ccccc1F)c1cc(Cl)ccc1-2` [Compound 229, 8-chloro-6-(2-fluorophenyl)-N-[2-[2-[2-[2-[2-[2-[2-(2-methoxyethoxy)ethoxy]ethoxy]ethoxy]ethoxy]ethoxy]ethoxy]ethyl]-4H-imidazo[1,2-a][1,4]benzodiazepine-2-carboxamide] were above 100 nM and above 100%.
With `NC(=O)[C@H](O)c1cn2c(n1)CN=C(c1ccccc1F)c1cc(Cl)ccc1-2` [Compound 231, (2R)-2-[12-chloro-9-(2-fluorophenyl)-2,5,8-triazatricyclo[8.4.0.0^2,6]tetradeca-1 (10),3,5,8,11,13-hexaen-4-yl]-2-hydroxyacetamide], the EC50 is below 50 nM. Besides, under setting [1], the Emax was above 100%.
Regarding `NC(=O)C(NCc1ccccc1)c1cn2c(n1)CN=C(c1ccccc1F)c1cc(Cl)ccc1-2` (stereo not drawn) [Compound 232, 2-(Benzylamino)-2-[12-chloro-9-(2-fluorophenyl)-2,5,8-triazatricyclo[8.4.0.0^2,6]tetradeca-1 (10),3,5,8,11,13-hexaen-4-yl]acetamide], the EC50 lay within 50 to 100 nM. Under setting [1], the Emax was 50 to 100%.
Turning to `O=C(O)Cc1cn2c(n1)CN=C(c1ccccc1F)c1cc(Cl)ccc1-2` [Compound 233, 2-(8-chloro-6-(2-fluorophenyl)-4H-benzo[f]imidazo[1,2-a][1,4]diazepin-2-yl) acetic acid], the EC50 is below 50 nM. In addition, under setting [1], the Emax was above 100%.
Regarding `O=C(O[C@@H]1O[C@H](C(=O)O)[C@@H](O)[C@H](O)[C@H]1O)c1cn2c(n1)CN=C(c1ccccc1F)c1cc(Cl)ccc1-2` [Compound 234, (2S,3S,4S,5R,6S)-6-((8-chloro-6-(2-fluorophenyl)-4H-benzo[f]imidazo[1,2-a][1,4]diazepine-2-carbonyl)oxy)-3,4,5-trihydroxytetrahydro-2H-pyran-2-carboxylic acid], the Emax under setting [1] fell in the range of 50 to 100%. Also, the EC50 (Ltk cells expressing GABAA α3β2γ2, 2.0 μM GABA, whole-cell, holding potential −80 mV, read-out: EC50) is below 50 nM.
Consider `O=C(O)c1nc2n(c1Cl)-c1ccc(Cl)cc1C(c1ccccc1F)=NC2` [Compound 235], for which the EC50 was below 50 nM. In addition, the Emax under setting [1] is above 100%.
On to `O=C(O)c1cn2c(n1)C[N+]([O-])=C(c1ccccc1F)c1cc(Cl)ccc1-2` [Compound 236, 2-carboxy-8-chloro-6-(2-fluorophenyl)-4H-514-benzo[e]imidazo[2,1-c][1,4]diazepin-5-olate], for which the EC50 is above 100 nM. Also, under setting [1], the Emax was in the range of 50 to 100%.
With `NC(=O)c1cn2c(n1)CN=C(c1ccccc1F)c1cc(Cl)ccc1-2` [Compound 238, 8-chloro-6-(2-fluorophenyl)-4H-imidazo[1,2-a][1,4] benzodiazepine-2-carboxamide], the concentration for a half-maximal effect (EC50) is below 50 nM. Moreover, the Emax under setting [1] is above 100%.
On to `O=C(O)c1nc2n(c1-c1ccccc1)-c1ccc(Cl)cc1C(c1ccccc1F)=NC2` [Compound 239, 8-chloro-6-(2-fluorophenyl)-1-phenyl-4H-imidazo[1,2-a][1,4]benzodiaze pine-2-carboxylic acid], for which the concentration giving a half-maximal response (EC50) was above 100 nM. In addition, the Emax under setting [1] is above 100%.
In the case of `CNC(=O)c1cn2c(n1)CN=C(c1ccccc1F)c1cc(Cl)ccc1-2` [Compound 240, 8-chloro-6-(2-fluorophenyl)-N-methyl-4H-imidazo[1,2-a][1,4]benzodiazepine-2-carboxamide], the EC50 is below 50 nM. In addition, the Emax under setting [1] was above 100%.
Regarding `CN(C)C(=O)c1cn2c(n1)CN=C(c1ccccc1F)c1cc(Cl)ccc1-2` [Compound 241, 8-chloro-6-(2-fluorophenyl)-N,N-dimethyl-4H-imidazo[1,2-a][1,4]benzodiazepine-2-carboxamide], the EC50 was below 50 nM. Under setting [1], the Emax was above 100%.
The corresponding values for `O=C(O)c1nc2n(c1CN1CCC1)-c1ccc(Cl)cc1C(c1ccccc1F)=NC2` [Compound 243, 1-(azetidin-1-ylmethyl)-8-chloro-6-(2-fluorophenyl)-4H-benzo[f]imidazo[1,2-a][1,4]diazepine-2-carboxylic acid] are above 100 nM and above 100%.
As for `O=C(O)c1nc2n(c1CNC1CCCCC1)-c1ccc(Cl)cc1C(c1ccccc1F)=NC2` [Compound 244, 8-chloro-1-((cyclohexylamino)methyl)-6-(2-fluorophenyl)-4H-benzo[f]imidazo[1,2-a][1,4]diazepine-2-carboxylic acid], the EC50 was above 100 nM. The Emax under setting [1] was above 100%.
As for `O=C(O)c1nc2n(c1CN1CCOCC1)-c1ccc(Cl)cc1C(c1ccccc1F)=NC2` [Compound 245, 8-chloro-6-(2-fluorophenyl)-1-(morpholinomethyl)-4H-benzo[f]imidazo[1,2-a] [1,4]diazepine-2-carboxylic acid], the EC50 is above 100 nM. Besides, the Emax under setting [1] was above 100%.
Take `O=C(O)c1nc2n(c1CN1CCCCC1)-c1ccc(Cl)cc1C(c1ccccc1F)=NC2` [Compound 246, 8-chloro-6-(2-fluorophenyl)-1-(piperidin-1-ylmethyl)-4H-benzo[f]imidazo[1,2-a][1,4]diazepine-2-carboxylic acid]: the EC50 was above 100 nM. The Emax under setting [1] fell in the range of 50 to 100%.
For `O=C(O)c1nc2n(c1CN1CCCC1)-c1ccc(Cl)cc1C(c1ccccc1F)=NC2` [Compound 247, 8-chloro-6-(2-fluorophenyl)-1-(pyrrolidin-1-ylmethyl)-4H-benzo[f]imidazo[1,2-a][1,4]diazepine-2-carboxylic acid], the EC50 is above 100 nM. The Emax under setting [1] lay in the range of 50 to 100%.
Take `Nc1c(C(=O)O)nc2n1-c1ccc(Cl)cc1C(c1ccccc1F)=NC2` [Compound 249, 3-Amino-12-chloro-9-(2-fluorophenyl)-2,5,8-triazatricyclo[8.4.0.0^2,6]tetradeca-1 (10),3,5,8,11,13-hexaene-4-carboxylic acid]: the Emax under setting [1] is above 100%.
